Assay results as given in patent US12103946B2, “Steroid compounds as Treg modulators and uses thereof” (New York University, priority 2018, dated 2024).
Like-named read-outs stand apart in the source and are kept apart here.

Legend:
[1] = Measurement of lipophilicity (octanol/ammonium bicarbonate partitioning, LC-MS); settings: n-octanol / 50 mM ammonium bicarbonate, pH 8
Procedure: (§5) Measurement of lipophilicity. Partitioning Method: 2 μL of 10 mM stock solutions of each target compound was added to a 1 mL each of 50 mM ammonium bicarbonate (pH=8), and 1 mL of n-octanol in an Eppendorf tube. The resulting two-phase mixture was vortexed and then shaken for 18 h at 20° C. The two phases were then carefully separated into the aqueous sample (bottom layer), and organic sample (top-layer) and placed separately in autosampler vials and analyzed by LC-MS/MS. LC-MS Method: a Thermo q-Exactive Plus LC-MS equipped with an Ultimate 3000 HPLC was operated in negative ion mode after optimized to detect the [M− H]^− of the bile acids. […] A Dikma Inspire C8 column (3 μm particle size, 100 mm length, 4.6 mm ID) was used for analysis. Each injection was 5 μL, and a constant flow rate of 0.400 L/min was used. The gradient started at 0% B and was held constant for 2 minutes. Then the mobile phase composition was linearly changed to 100% B over 8 minutes and held at 100% for the following 5 minutes. The mobile phase composition was changed to 0% B over the following 0.1 minutes and the system was allowed to equilibrate to starting conditions over 1.9 minutes. Standards of all targets were used to establish retention times. Better than 2 ppm mass accuracy was obtained on all measurements. The LC-MS analysis was done in triplicate, while the partitioning was done once for each target's [M− H]^− ion. Calculation of log D: the total response of target in octanol was divided by the total response in the aqueous phase to get a partitioning coefficient. Then, log base 10 was taken and reported.

[2] = tested on: fusion protein of RORγt and Gal4-DBD; experiment: RORγt luciferase reporter assay in HEK293 cells; format: cell-based, human; settings: ML209 2 μM, bile acids 10 μM
Procedure: Data are shown as the mean±standard deviation by unpaired t-test with 2-tailed p-value.
(§1) We next examined if 3-oxoLCA physically interacts with the RORγt protein in vitro. A microscale thermophoresis (MST) assay was performed with recombinant human RORγt ligand-binding domain (LBD). […] Next, we examined if 3-oxoLCA modulates the transcriptional activity of RORγt. We assayed the effect of the bile acids on firefly luciferase expression directed by a fusion protein of RORγt and Gal4-DBD (DNA-binding domain) in human embryonic kidney (HEK) 293 cells^14.

[3] = tested on: naïve CD4+ T cells (Treg differentiation, FoxP3); experiment: In vitro Treg differentiation, FoxP3 staining by flow cytometry; format: cell-based, mouse; settings: for FoxP3 expression / Treg differentiation in cells lacking CNS3: CNS3 knockout cells
Source text: To determine if bile acids influence T cell functions, the present inventors performed a small-scale screening assay with a small molecule library comprising secondary bile acids with in vitro Treg differentiation as a read-out. Naïve CD4^+ T lymphocytes were sorted from wild-type B6 mice and cultured in the presence of a TCR stimulus, interleukin 2 (IL-2), and different amounts of TGFβ (optimized for Treg differentiation). Treg differentiation was quantified at the single cell level by staining with an antibody specific for FoxP3, followed by flow cytometry analysis. Retinoic acid, a known enhancer of Treg differentiation, was used as a positive control.
(§2) Our screen included both primary bile acids, synthesized by the host, and secondary bile acids, produced by bacterial modification of primary bile acids (FIG. 5). Naïve CD4^+ T cells were isolated from wild-type C57BL/6J (B6) mice and cultured with bile acids under Th17 differentiation conditions and, as a counter-screen, Treg differentiation conditions (FIG. 6).
(§3) In Vitro T Cell Culture. Naïve CD4^+ (CD62L^+ CD44^− CD25^− CD4^+) T cells were isolated from the spleens and the lymph nodes of mice of designated genotypes with FACS sorting. For certain experiments, naïve CD4^+ T cells were enriched using naïve CD4^+ T cell isolation kits (Miltenyi). Naïve CD4^+ T cells (40,000 cells) were cultured in a 96-well plate pre-coated with hamster IgG (MP Biomedicals) in T cell medium (RPMI, 10% fetal bovine serum, 25 mM glutamine, 55 μM 2-mercaptoethanol, 100 U/mL penicillin, […] streptomycin) supplemented with 0.25 μg/mL anti-CD3 (clone 145-2C11) and 1 μg/mL anti-CD28 (clone 37.51). For Th0 culture, T cells were cultured with the addition of 100 U/mL of IL-2 (PEPROTECH). For Th1 cell differentiation, T cells were cultured with the addition of 100 U/mL of IL-2, 10 μg/mL of anti-IL-4 (clone 11B11) and 10 ng/mL of IL-12 (PEPROTECH). For Th2 cell differentiation, T cells were cultured with the addition of 10 μg/mL of anti-IFNγ (clone XMG1.2) and 10 ng/mL of IL-4 (R&D Systems). For Th17 cell differentiation, T cells were cultured with the addition of 10 ng/mL of IL-6 (eBioscience) and 0.5 ng/mL of TGF-β (PEPROTECH). For Treg culture, T cells were cultured with the addition of 100 U/mL of IL-2 and various concentrations of TGF-β. […] Bile acids, retinoic acid (Sigma) or mitoQ (Focus Biomolecules), or mitoPQ (Sigma) were added either at 0 or 16 h time points. Compounds with low water solubility were sonicated before adding to the culture. Cells were harvested and assayed by flow cytometry on day 3. For ROS and mitochondrial membrane potential detection, cells cultured for 2 days were incubated with 5 μM of mitoSOX (ThermoFisher), 10 μM of DCFDA (Sigma) or 2 μM of JC-1 (ThermoFisher) for 30 min and assayed with flow cytometry.
(§4) Flow Cytometry. Cells harvested from in vitro culture or in vivo mice experiments were stimulated with 50 ng/mL PMA (Phorbol 12-myristate 13-acetate, Sigma) and 1 μM ionomycin (Sigma) in the presence of GolgiPlug (BD) for 4 h to determine cytokine expression. After stimulation, cells were stained with cell surface marker antibodies and LIVE/DEAD Fixable dye, Aqua, to exclude dead cells, fixed and permeabilized with a FoxP3/Transcription factor staining kit (eBioscience), followed by staining with cytokine- and/or transcription factor-specific antibodies. All flow cytometry analyses were performed on an LSR II flow cytometer (BD) and data were analyzed with FlowJo software (TreeStar).

T cells = experiment: ROS, mitochondrial mass and membrane potential (mitoSOX, DCFDA, MitoTracker, JC-1); format: cell-based, mouse; settings: 48 h
Procedure: Chromatin obtained from DMSO- and isoalloLCA-treated WT cells was immunoprecipitated with IgG, anti-H3K27Ac, anti-P300, or anti-H3K4me1 antibodies, followed by real-time PCR analysis (n=3/group). Primers targeting FoxP3 promoter (Pro), CNS1, CNS2 and CNS3 region and hsp90 promoter were used for qPCR quantification. Relative enrichment was calculated as fold change relative to the ChIP signal at the FoxP3 promoter of the DMSO-treated control. d and e, Flow cytometry and quantification of CD4^+ T cells stained intracellularly for FoxP3. […] Their mitochondrial and cytoplasmic ROS were measured by mitoSOX (h) and 2′,7′-dichlorofluorescein diacetate (DCFDA) (i), respectively. Total mitochondria mass was measured by MitoTracker (j) and the mitochondrial membrane potential measured by JC-1 dye (k). MFIs of different treatments were normalized as fold changes to those of DMSO control (n=3/group).
In Vitro T Cell Culture. Naïve CD4^+ (CD62L^+ CD44^− CD25^− CD4^+) T cells were isolated from the spleens and the lymph nodes of mice of designated genotypes with FACS sorting. For certain experiments, naïve CD4^+ T cells were enriched using naïve CD4^+ T cell isolation kits (Miltenyi). […]

physchem = settings: pH 8
Procedure: as §5

CD4+ T cells = settings: for cell viability: 3-day culture
Source text: Representative FACS plots of CD4^+ T cells cultured for 3 days and stained intracellularly for FoxP3 (e). Quantification of FoxP3^+ and viable T cells after 3-day culture (f) (n=2/group). n, number of biologically independent samples. Data are representative of two independent experiments (b, d). Data in (c) are shown as the mean±standard deviation.
Naïve CD4^+ T cells were isolated from FoxP3-IRES-GFP mice. d, Flow cytometry of CD4^+ T cells stained intracellularly for FoxP3. Naïve CD4^+ T cells isolated from WT, CNS1, CNS2 or CNS3 knockout mice (n=3/group) were cultured with anti-CD3/28 and IL-2, LCA (20 μM), TGF-β (0.05 ng/ml) and additional retinoic acid (RA; 1 ng/ml). e and f, Flow cytometry (e) and its quantification (f) of CD4^+ T cells stained intracellularly for FoxP3. […] Data are representative of two independent experiments (c, d). Data are shown as the mean±standard deviation by unpaired t-test with 2-tailed p-value.
as §4

[4] = cited from earlier work
[5] = target: T1, recombinant human RORγt ligand-binding domain (LBD) (Homo sapiens, UniProt P51449); experiment: Microscale thermophoresis assay; settings: MST
T1 sequence (P51449 269-508 limits assumed): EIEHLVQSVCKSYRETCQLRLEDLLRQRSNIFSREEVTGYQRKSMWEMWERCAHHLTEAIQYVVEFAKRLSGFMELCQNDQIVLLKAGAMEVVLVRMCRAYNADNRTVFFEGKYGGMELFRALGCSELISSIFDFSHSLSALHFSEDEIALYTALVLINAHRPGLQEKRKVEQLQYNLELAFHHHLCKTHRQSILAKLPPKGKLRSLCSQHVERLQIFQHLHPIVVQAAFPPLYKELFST
Procedure: as §1
Microscale Thermophoresis Assay. The binding affinity of the compounds with RORγ ligand-binding domain (LBD) was analyzed by microscale thermophoresis (MST). Purified RORγ-LBD was labeled with the Monolith NT™ Protein Labeling Kit RED (NanoTemper Technologies). Serially-diluted compounds, with concentrations of 1 mM to 20 nM, were mixed with 55 nM labeled RORγ-LBD at room temperature and loaded into Monolith™ standard-treated capillaries. Binding was measured by monitoring the thermophoresis with 20% LED power and ‘Medium’ MST power on a Monolith NT.115 instrument (Nano Temper Technologies) with the following time setting: 5s Fluo, Before; 20s MST On; and 5s Fluo, After. Kd values were fitted using the NT Analysis software (Nano Temper Technologies).

[6] = tested on: naïve CD4+ T cells (Th17 differentiation, IL-17a); experiment: In vitro Th17 differentiation, IL-17a staining by flow cytometry; format: cell-based, mouse; settings: for Th17 cell differentiation (IL-17a): bile acids 20 μM, 3 days, IL-6 and TGF-β
Source text: as §2, §3, §4

## C[C@H](CCC(=O)O)[C@H]1CC[C@H]2[C@@H]3CC[C@@H]4C[C@H](O)CC[C@]4(C)[C@H]3C[C@H](O)[C@]12C [DCA, Deoxycholic acid]
[1]
  logD at 18 h: 2.7

## COc1cc(O)c(C(CC(=O)N2C[C@H](C)C[C@H](C)C2)c2ccc3c(c2)OCO3)c(OC)c1 (stereo partly shown) [ML209, reference compound]
[2]
  RORγt reporter activity: completely lost RORγt activity

## C[n+]1ccc(-c2cc[n+](CCCCCCCCCC[P+](c3ccccc3)(c3ccccc3)c3ccccc3)cc2)cc1.[I-].[I-].[I-] [mitoPQ, mitoParaquat, reference compound]
[3]
  FoxP3 expression / Treg differentiation in cells lacking CNS3: required the CNS3 enhancer and TGF-β
[3]; bile acids 20 μM, 3 days, anti-CD3/28, IL-2
  Treg differentiation (FoxP3 expression): sufficient to enhance mitoROS production and Treg differentiation in a dose-dependent manner
T cells
  mitochondrial ROS (mitoROS) production: sufficient to enhance mitoROS production

## TGF-β: cytokine used for Treg culture
[3]
  FoxP3 expression / Treg differentiation in cells lacking CNS3: boosted Treg differentiation in CNS3-deficient cells, albeit with reduced efficiency

## C[C@H](CCC(=O)O)[C@H]1CC[C@H]2[C@@H]3CC[C@@H]4C[C@@H](O)CC[C@]4(C)[C@H]3CC[C@]12C [isoLCA, Isolithocholic acid]
physchem
  logD at 18 h: 3.5

## C[C@H](CCC(=O)O)[C@H]1CC[C@H]2[C@@H]3CC[C@@H]4C[C@H](O)CC[C@]4(C)[C@H]3CC[C@]12C [LCA, Lithocholic acid]
physchem
  logD at 18 h: 3.6

## C[C@H](CCC(=O)O)[C@H]1CC[C@H]2[C@@H]3CC[C@H]4C[C@H](O)CC[C@]4(C)[C@H]3CC[C@]12C [alloLCA, Allolithocholic acid]
other
  Log D (pH = 8.0): 3.5

## C[C@H](CCC(=O)NCC(=O)O)[C@H]1CC[C@H]2[C@@H]3CC[C@H]4C[C@@H](O)CC[C@]4(C)[C@H]3CC[C@]12C [Glyco-isoalloLCA]
CD4+ T cells; 10 or 20 μM
  cytotoxicity compared to isoalloLCA: enhanced cytotoxicity at 10 or 20 μM compared to isoalloLCA

## CCNC(=O)C[C@@H]1N=C(c2ccc(Cl)cc2)c2cc(OC)ccc2-n2c(C)nnc21 [iBET, reference compound]
[3]; isoalloLCA 20 μM, TGF-β 0.05 ng/mL
  effect on isoalloLCA-dependent enhancement of FoxP3: prevented isoalloLCA-dependent enhancement of FoxP3 in a dose-dependent manner

## C[C@H](CCC(=O)O)[C@H]1CC[C@H]2[C@@H]3[C@@H](O)C[C@@H]4C[C@H](O)CC[C@]4(C)[C@H]3CC[C@]12C [UDCA, Ursodeoxycholic acid]
[4]
  Log D (pH = 8.0), previously reported: 2.2

## C[C@H](CCC(=O)O)[C@H]1CC[C@H]2[C@@H]3CC[C@@H]4CC(=O)CC[C@]4(C)[C@H]3C[C@H](O)[C@]12C [3-oxoDCA, 3-oxodeoxycholic acid, reference compound]
[5]
  Kd relative to 3-oxoLCA: ~20 times
[6]
  Th17 cell differentiation (IL-17a): Neither 3-oxoCA nor 3-oxoDCA inhibited Th17 cell differentiation as robustly as 3-oxoLCA

## C[C@H](CCC(=O)O)[C@H]1CC[C@H]2[C@@H]3[C@H](O)C[C@@H]4C[C@H](O)CC[C@]4(C)[C@H]3CC[C@]12C [CDCA, Chenodeoxycholic acid]
[4]
  Log D (pH = 8.0), previously reported: 2.2

## CC[C@H]1[C@@H](O)[C@@H]2[C@H](CC[C@]3(C)[C@@H]([C@H](C)CCC(=O)O)CC[C@@H]23)[C@@]2(C)CC[C@@H](O)C[C@@H]12 [OCA, Obeticholic acid]
[1]
  logD at 18 h: 2.5

## C[C@H](CCC(=O)O)[C@H]1CC[C@H]2[C@@H]3[C@H](O)C[C@@H]4CC(=O)CC[C@]4(C)[C@H]3C[C@H](O)[C@]12C [3-oxoCA, 3-oxocholic acid, reference compound]
[5]
  Kd relative to 3-oxoLCA: ~20 times
[6]
  Th17 cell differentiation (IL-17a): Neither 3-oxoCA nor 3-oxoDCA inhibited Th17 cell differentiation as robustly as 3-oxoLCA

## C[C@H](CCC(=O)O)[C@H]1CC[C@H]2[C@@H]3CC[C@H]4C[C@@H](O)CC[C@]4(C)[C@H]3CC[C@]12C [isoalloLCA, Isoallolithocholic acid]
CD4+ T cells
  cell viability: do not significantly affect cell proliferation, cell viability
CD4+ T cells; listed as IsoalloLCA
  cell viability: did not impair cell viability
physchem
  logD at 18 h: 2.2
[6]; 20 μM
  reduction of Th17 cell differentiation: ~50%
